# Experimental data as given in ChEMBL document CHEMBL4765237, “Structural optimization and structure-activity relationship studies of N-phenyl-7,8-dihydro-6H-pyrimido[5,4-b][1,4]oxazin-4-amine derivatives as a new class of inhibitors of RET and its drug resistance mutants” (Eur J Med Chem, 2018).
# Tests used:
# BaF3 [1] = experiment: Growth inhibition of mouse BaF3 cells incubated for 3 days by MTT assay; format: functional; conditions: BaF3, 72 h, time 3 day
# [2] = Clearance in Sprague-Dawley rat at 10 mg/kg, po measured upto 24 hrs by LC-MS/MS analysis; format: ADME, organism-based; conditions: in vivo
# [3] = Toxicity in NOD-SCID mouse xenografted with […] cells harboring RET C634Y mutant assessed as reduction in body weight at 10 to 30 mg/kg, po administered for 18 days and measured on day 18; format: organism-based; conditions: in vivo, 432 h, dose 10-30 mg/kg, time 18 day
# MDA-MB-231 = experiment: Growth inhibition of human MDA-MB-231 cells incubated for 3 days by MTT assay; format: functional; conditions: MDA-MB-231, 72 h, time 3 day
# [4] = Growth inhibition of human Ocut-2C cells incubated for 3 days by MTT assay; format: functional; conditions: OCUT2C, 72 h, time 3 day
# BHT-101 = experiment: Growth inhibition of human BHT-101 cells incubated for 3 days by MTT assay; format: functional; conditions: BHT-101, 72 h, time 3 day
# MGC-803 = experiment: Growth inhibition of human MGC-803 cells incubated for 3 days by MTT assay; format: functional; conditions: MGC-803, 72 h, time 3 day
# BaF3 [5] = experiment: Growth inhibition of mouse BaF3 cells harboring RET M918T mutant incubated for 3 days by MTT assay; format: functional; conditions: BaF3, 72 h, time 3 day
# BaF3 [6] = experiment: Growth inhibition of mouse BaF3 cells harboring RET V804M mutant incubated for 3 days by MTT assay; format: functional; conditions: BaF3, 72 h, time 3 day
# BaF3 [7] = experiment: Growth inhibition of mouse BaF3 cells over expressing wild type RET incubated for 3 days by MTT assay; format: functional; conditions: BaF3, 72 h, time 3 day
# DU-145 = experiment: Growth inhibition of human DU-145 cells incubated for 3 days by MTT assay; format: functional; conditions: DU-145, 72 h, time 3 day
# [8] = Inhibition of colony formation in […] NIH3T3 cells at > 1 uM incubated for 10 days by crystal violet assay relative to control; format: functional; conditions: dose microM >1; time 10 day
# Ephrin type-A receptor 7 = Ephrin type-A receptor 7 (Homo sapiens, UniProt Q15375); experiment: Inhibition of recombinant human EphA7 (613 to 909 residues) using KTFCGTPEYLAPEVRREPRILSEEEQEMFRDFDYIADWC as substrate incubated for 40 mins in presence of [gamma-33ATP] by scintillation counting based radiometry assay
# [9] = target: Vascular endothelial growth factor receptor 3 (Homo sapiens, UniProt P35916); experiment: Inhibition of recombinant human FLT4 (800 to end residues) using GGEEEEYFELVKKKK as substrate incubated for 40 mins in presence of [gamma-33ATP] by scintillation counting based radiometry assay
# [10] = target: Vascular endothelial growth factor receptor 2 (Homo sapiens, UniProt P35968); experiment: Inhibition of human KDR (790 to end residues) using myelin basic protein as substrate after 40 mins by [gamma-33ATP] radiometric assay
# [11] = target: Mast/stem cell growth factor receptor Kit (Homo sapiens, UniProt P10721); experiment: Inhibition of recombinant human C-Kit using poly(Glu, Tyr) 4:1 as substrate incubated for 40 mins in presence of [gamma-33ATP] by scintillation counting based radiometry assay
# [12] = target: Fibroblast growth factor receptor 1 (Homo sapiens, UniProt P11362)
# [13] = target: Receptor-type tyrosine-protein kinase FLT3 (Homo sapiens, UniProt P36888); experiment: Inhibition of recombinant human FLT3 (564 to end residues) using EAIYAAPFAKKK as substrate incubated for 40 mins in presence of [gamma-33ATP] by scintillation counting based radiometry assay
# [14] = target: Macrophage colony-stimulating factor 1 receptor (Homo sapiens, UniProt P07333)
# [15] = target: Tyrosine-protein kinase FRK (Homo sapiens, UniProt P42685); experiment: Inhibition of recombinant human PTK5 (218 to end residues) using GGEEEEYFELVKKKK as substrate incubated for 40 mins in presence of [gamma33P]ATP by scintillation counting based radiometry assay
# [16] = target: TRAF2 and NCK-interacting protein kinase (Homo sapiens, UniProt Q9UKE5); experiment: Inhibition of human TNIK (1 to 367 residues) using RLGRDKYKTLRQIRQ as substrate incubated for 40 mins in presence of [gamma33P]ATP by scintillation counting based radiometry assay
# Sequence of TRAF2 and NCK-interacting protein kinase (Q9UKE5 whole entry, the tested form may be a part): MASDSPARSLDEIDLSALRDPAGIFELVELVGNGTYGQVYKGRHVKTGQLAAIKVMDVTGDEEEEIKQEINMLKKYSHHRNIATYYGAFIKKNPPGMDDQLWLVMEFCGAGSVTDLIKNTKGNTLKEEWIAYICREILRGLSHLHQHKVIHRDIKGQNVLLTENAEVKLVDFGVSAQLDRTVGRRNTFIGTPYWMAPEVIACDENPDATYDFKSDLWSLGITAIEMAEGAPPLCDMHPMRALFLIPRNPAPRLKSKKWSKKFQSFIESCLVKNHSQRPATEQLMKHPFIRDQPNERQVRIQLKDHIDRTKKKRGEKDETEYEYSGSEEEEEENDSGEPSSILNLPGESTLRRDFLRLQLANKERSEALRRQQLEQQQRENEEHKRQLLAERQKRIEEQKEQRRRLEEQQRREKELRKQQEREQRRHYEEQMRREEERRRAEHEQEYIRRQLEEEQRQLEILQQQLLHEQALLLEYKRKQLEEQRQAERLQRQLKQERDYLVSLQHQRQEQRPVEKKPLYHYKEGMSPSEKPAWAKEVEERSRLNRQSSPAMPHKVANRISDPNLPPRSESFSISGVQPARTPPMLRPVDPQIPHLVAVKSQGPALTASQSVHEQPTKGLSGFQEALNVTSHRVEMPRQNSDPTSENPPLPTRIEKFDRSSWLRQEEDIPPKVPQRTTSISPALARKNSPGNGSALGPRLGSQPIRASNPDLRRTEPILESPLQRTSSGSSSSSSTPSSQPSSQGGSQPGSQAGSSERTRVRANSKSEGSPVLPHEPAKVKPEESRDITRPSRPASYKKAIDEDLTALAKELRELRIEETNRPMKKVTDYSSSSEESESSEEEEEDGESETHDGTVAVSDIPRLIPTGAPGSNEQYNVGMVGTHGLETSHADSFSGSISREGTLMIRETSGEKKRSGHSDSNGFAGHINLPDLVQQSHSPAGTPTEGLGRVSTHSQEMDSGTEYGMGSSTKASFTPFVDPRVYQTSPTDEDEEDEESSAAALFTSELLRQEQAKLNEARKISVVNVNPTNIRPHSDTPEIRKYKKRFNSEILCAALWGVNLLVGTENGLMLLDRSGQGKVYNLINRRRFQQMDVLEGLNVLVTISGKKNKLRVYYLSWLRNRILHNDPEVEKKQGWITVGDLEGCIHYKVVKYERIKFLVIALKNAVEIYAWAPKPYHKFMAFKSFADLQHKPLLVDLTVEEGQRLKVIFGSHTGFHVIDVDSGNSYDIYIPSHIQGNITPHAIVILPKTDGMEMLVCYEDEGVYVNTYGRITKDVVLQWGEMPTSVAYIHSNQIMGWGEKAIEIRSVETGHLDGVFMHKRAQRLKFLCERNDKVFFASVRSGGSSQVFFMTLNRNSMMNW
# Sequence of Receptor-type tyrosine-protein kinase FLT3 (P36888 whole entry): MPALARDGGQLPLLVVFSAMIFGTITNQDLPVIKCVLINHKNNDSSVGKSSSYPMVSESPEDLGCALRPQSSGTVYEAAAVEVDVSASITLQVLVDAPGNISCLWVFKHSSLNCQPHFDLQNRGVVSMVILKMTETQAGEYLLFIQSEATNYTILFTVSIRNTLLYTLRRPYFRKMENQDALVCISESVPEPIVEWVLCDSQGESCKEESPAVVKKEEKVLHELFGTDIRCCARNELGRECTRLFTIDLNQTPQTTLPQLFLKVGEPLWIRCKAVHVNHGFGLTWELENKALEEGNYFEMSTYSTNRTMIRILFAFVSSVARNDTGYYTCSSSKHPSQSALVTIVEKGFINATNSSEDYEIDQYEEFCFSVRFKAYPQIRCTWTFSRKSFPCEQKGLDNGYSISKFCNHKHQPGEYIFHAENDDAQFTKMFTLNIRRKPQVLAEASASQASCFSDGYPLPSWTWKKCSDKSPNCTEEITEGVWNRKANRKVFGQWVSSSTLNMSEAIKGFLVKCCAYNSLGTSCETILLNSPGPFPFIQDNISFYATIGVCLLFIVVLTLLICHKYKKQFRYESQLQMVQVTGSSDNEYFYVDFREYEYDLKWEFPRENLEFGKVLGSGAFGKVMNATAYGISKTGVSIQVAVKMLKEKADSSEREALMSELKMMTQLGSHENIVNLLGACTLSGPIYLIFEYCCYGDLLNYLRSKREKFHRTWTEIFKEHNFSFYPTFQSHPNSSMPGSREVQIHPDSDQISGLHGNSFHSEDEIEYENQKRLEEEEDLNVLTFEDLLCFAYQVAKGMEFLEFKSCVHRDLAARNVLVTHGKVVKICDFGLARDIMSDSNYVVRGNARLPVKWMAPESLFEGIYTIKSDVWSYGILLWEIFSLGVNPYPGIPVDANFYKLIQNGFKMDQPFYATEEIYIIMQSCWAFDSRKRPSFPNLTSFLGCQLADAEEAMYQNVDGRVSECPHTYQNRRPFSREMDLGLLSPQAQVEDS
# Sequence of Ephrin type-A receptor 7 (Q15375 whole entry, the tested form may be a part): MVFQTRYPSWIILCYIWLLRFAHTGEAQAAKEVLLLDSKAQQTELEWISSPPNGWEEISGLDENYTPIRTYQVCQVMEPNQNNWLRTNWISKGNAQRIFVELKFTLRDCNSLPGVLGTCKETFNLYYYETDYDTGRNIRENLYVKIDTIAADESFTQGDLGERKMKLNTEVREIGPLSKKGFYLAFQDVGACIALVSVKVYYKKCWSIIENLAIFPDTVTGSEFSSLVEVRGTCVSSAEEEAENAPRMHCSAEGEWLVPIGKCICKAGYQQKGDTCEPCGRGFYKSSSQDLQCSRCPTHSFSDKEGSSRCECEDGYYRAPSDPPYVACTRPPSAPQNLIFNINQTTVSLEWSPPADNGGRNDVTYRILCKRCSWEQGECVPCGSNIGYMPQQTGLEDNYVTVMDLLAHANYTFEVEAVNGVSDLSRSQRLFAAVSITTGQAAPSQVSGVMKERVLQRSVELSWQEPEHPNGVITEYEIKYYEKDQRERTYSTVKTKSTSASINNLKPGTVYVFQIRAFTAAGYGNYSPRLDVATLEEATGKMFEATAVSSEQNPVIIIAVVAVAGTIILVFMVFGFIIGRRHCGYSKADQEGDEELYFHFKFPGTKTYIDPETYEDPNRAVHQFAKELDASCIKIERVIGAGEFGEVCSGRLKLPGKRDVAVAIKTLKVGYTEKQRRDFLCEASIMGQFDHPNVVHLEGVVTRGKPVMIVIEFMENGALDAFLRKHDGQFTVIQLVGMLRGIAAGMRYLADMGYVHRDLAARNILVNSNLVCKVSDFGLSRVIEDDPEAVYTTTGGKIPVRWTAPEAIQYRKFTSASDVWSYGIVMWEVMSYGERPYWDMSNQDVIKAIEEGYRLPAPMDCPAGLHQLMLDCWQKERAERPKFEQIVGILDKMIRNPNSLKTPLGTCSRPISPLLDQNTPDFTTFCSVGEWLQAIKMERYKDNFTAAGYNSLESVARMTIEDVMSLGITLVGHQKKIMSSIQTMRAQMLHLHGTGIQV
# Sequence of Fibroblast growth factor receptor 1 (P11362 whole entry): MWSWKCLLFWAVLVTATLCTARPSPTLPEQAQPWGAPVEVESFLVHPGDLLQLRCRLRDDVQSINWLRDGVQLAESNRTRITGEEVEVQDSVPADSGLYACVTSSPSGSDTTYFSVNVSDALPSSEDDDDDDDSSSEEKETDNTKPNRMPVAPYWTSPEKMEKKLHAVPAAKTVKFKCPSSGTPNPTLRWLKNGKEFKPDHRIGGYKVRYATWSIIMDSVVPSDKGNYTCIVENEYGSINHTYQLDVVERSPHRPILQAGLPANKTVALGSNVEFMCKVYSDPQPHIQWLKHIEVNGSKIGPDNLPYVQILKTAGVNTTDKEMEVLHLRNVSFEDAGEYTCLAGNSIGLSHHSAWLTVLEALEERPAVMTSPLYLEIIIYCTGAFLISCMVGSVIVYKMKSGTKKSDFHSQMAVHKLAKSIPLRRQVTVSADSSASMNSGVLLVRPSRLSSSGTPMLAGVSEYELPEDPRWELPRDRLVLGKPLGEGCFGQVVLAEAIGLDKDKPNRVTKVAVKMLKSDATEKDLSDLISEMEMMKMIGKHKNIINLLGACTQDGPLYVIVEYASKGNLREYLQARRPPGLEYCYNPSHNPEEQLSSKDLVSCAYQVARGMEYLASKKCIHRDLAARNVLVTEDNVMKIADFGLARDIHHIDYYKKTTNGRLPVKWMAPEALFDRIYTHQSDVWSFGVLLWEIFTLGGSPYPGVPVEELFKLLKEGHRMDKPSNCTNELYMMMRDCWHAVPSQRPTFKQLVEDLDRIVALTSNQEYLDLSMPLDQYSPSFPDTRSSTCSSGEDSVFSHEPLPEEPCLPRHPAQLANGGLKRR
# Sequence of Tyrosine-protein kinase FRK (P42685 whole entry, the tested form may be a part): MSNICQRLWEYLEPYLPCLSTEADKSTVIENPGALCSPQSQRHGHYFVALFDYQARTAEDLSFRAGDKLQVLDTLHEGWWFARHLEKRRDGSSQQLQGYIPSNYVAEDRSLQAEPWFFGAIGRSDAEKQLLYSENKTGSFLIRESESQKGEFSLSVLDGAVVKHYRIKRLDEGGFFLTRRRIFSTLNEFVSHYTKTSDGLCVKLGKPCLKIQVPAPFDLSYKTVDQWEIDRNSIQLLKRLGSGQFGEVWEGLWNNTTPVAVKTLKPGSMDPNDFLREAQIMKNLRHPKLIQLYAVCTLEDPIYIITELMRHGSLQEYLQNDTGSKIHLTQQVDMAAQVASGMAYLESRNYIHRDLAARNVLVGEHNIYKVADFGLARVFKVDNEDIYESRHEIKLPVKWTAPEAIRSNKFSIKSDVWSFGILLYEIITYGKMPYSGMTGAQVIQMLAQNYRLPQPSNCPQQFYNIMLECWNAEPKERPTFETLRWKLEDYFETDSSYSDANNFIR
compound,measurement,setting,value
CC(C)(C)c1cc(NC(=O)Nc2ccc(Nc3ncnc4c3OCCCN4)cc2)no1,GI50,BaF3 [1],> 10000 nM
same,CL/F,[2],0.383 mL/min/kg
same,Activity,[3],Non-Toxic
same,GI50,MDA-MB-231,> 10000 nM
same,GI50,[4],> 10000 nM
same,GI50,BHT-101,> 10000 nM
same,GI50,MGC-803,4310 nM
same,GI50,BaF3 [5],870 nM
same,GI50,BaF3 [6],930 nM
same,GI50,BaF3 [7],100 nM
same,GI50,DU-145,> 10000 nM
same,inhibition (INH),[8],100%
same,IC50,Ephrin type-A receptor 7,199 nM
same,IC50,[9],6 nM
same,IC50,[10],892 nM
same,IC50,[11],218 nM
same,IC50,[12],868 nM
same,IC50,[13],13 nM
same,IC50,[14],9 nM
same,IC50,[15],51 nM
same,IC50,[16],221 nM
